Measurements as given in paper PMC6661824, “α-Glucosidase inhibitors from a mangrove associated fungus, Zasmidium sp. strain EM5-10” (BMC Chemistry, 2019).
pIC50: −log10 of the molar value. Where “and” joins values, the source holds several entries; their conditions need not be identical. Equal entries are not always repeated.

Legend:
[1] = molecular target: α-Glucosidase from baker's yeast; experiment: α-Glucosidase inhibitory assay (PNP-G substrate); assay type: biochemical, S. cerevisiae
Protocol: (§1) The α-glucosidase inhibitory assay was performed according to the protocol established in our laboratory. α-Glucosidase from baker’s yeast purchased from Sigma Chemical Co. The inhibition was measured spectrophotometrically at pH 7.0 and 37 °C employing 2 mM p-nitrophenyl α-D-glucopyranoside (PNP-G) as a substrate and 32 mU/mL of the enzyme, in 100 mM potassium phosphate buffer (enzyme stock). […] The absorbance (A) of 4-nitrophenol released by the hydrolysis of PNP-G was measured at 400 nm by Synergy HT Bio Tek microplate spectrophotometer. […] After incubating, 150 µL of the substrate was added and further incubated for 20 min at 37 °C. All assays are performed in 96-well microplates (Greiner bio-one 655101) in duplicate. The activity of samples was calculated as a percentage in comparison to a control (DMSO or MeOH instead of sample solution) according to the following equation: %Inhibition=ΔAcontrol-ΔAsample/ΔAcontrol×100%
The concentration required to inhibit activity of the enzyme by 50% (IC50) was calculated by regression analysis.

α-glucosidase = experiment: Kinetic analysis of α-glucosidase inhibition (Lineweaver–Burk plots); assay type: biochemical, S. cerevisiae; details: for type of inhibition against α-glucosidase: Lineweaver–Burk plots; for Vmax: maximum reaction velocity of α-glucosidase in presence of inhibitor
Protocol: Kinetic analysis was carried out to understand the interaction of tripalmitin with α-glucosidase. Lineweaver–Burk plots were constructed using different concentrations of substrate and tripalmitin.
as §1

[2] = standards purchased from Sigma-Aldrich

| Compound | pIC50 ([1]; pH 7.0, 37 °C, 2 mM PNP-G) | IC50 α-glucosidase ([1]; pH 7.0, 37 °C, 2 mM PNP-G) [µg/mL] | pIC50 [1, 2] | type of inhibition against α-glucosidase (α-glucosidase) | Vmax (α-glucosidase) [mmol/L/min] | α-glucosidase inhibition (result in words) ([1]; obtained from methanolysis reaction) |
| --- | --- | --- | --- | --- | --- | --- |
| CCCCCCCCCCCCCCCC(=O)OCC(COC(=O)CCCCCCCCCCCCCCC)OC(=O)CCCCCCCCCCCCCCC [Compound 1, tripalmitin] | 5.43 and 5.44 | 3.02 | 5.49 | mixed inhibitor | 0.0027 ± 0.0001 | – |
| OCC(O)CO [glycerol] | – | – | – | – | – | inactive |
| CCCCCCCCCCCCCCCC(=O)OC [methyl palmitate] | 6.34 | 0.13 | – | mixed inhibitors | 0.0024 ± 0.0002 | – |
| CCCCCCCC/C=C\CCCCCCCC(=O)O [oleic acid] | 6.64 | – | – | – | – | – |
| CCCCCCCCCCCCCCCCCC(=O)O [stearic acid] | 6.09 | – | – | – | – | – |
| CCCCCCCC/C=C\CCCCCCCC(=O)OCC(COC(=O)CCCCCCC/C=C\CCCCCCCC)OC(=O)CCCCCCC/C=C\CCCCCCCC [triolein] | – | – | 5.82 | – | – | – |
